How the values were obtained:
[1] = tested on: ΔrhlI strain expressing WT RhlR; test: RNA-seq gene expression; type: cell-based, Pseudomonas aeruginosa; set-up: opmD Expression value / mexI Expression value / mexH Expression value / mexG Expression value / lasB Expression value / rhlA Expression value / rhlB Expression value / rhlR Expression value / lecB Expression value / fhp Expression value / chiC Expression value / hcnA Expression value / mvfR Expression value / katB Expression value / norC Expression value / norB Expression value / katA Expression value: unit not given here; conditions: 2 µM C4HSL
Experimental: To determine the effects of hypo- and hypersensitivity to C4HSL on RhlR-dependent transcription activation in P. aeruginosa, we performed RNA-seq on ΔrhlI strains expressing WT RhlR, RhlR T58L, and RhlR A44M in the presence of 2 µM C4HSL. We chose this approach to better control the levels of C4HSL across samples. All gene expression analyses were done relative to a ΔrhlI strain without exogenous supplementation of AHL. Thus, we examined the total increase in C4HSL-dependent gene regulation. We observed increased rhlA RNA levels in strains expressing WT RhlR and the RhlR T58L variant compared to ΔrhlI without C4HSL or a strain expressing the RhlR A44M variant (Table 2; Table S1). […] To corroborate our RNA-seq data, we built an rhlA promoter fusion to mScarlet and assayed reporter levels in the same genetic backgrounds as our transcriptomic experiment (Fig. S7D). Strains expressing hypersensitive RhlR variants produced similar levels of fluorescent signal relative to the WT strain, while a strain expressing a hyposensitive RhlR variant had diminished levels of fluorescent reporter (Fig. S7D).
A total of […] of overnight cultures was back diluted 1:100 in 20 mL of fresh LB media and incubated for 5 h at 37°C with shaking. Cells were harvested by centrifugation, and pellets were frozen until RNA extraction. RNA was extracted using the Invitrogen PureLink RNA Mini Kit. Pellets were resuspended in 100 µL lysozyme solution containing 10 mM Tris-HCl pH 8.0, 0.1 mM EDTA, and 1 mg/mL lysozyme. Five microliters of 1% SDS was added, and the solution was mixed with a vortex and incubated at room temperature for 5 min. A total of 350 µL lysis buffer (Invitrogen) was added with 10 µL 2-mercaptoethanol for each 1 mL of lysis buffer and vortexed. Cells were lysed by bead beating (BioSpec 0.1 MM Zirconia/Silica Beads) for two rounds of 50 s. Lysed cells were transferred to fresh microcentrifuge tubes with 250 µL of 100% ethanol and mixed with a vortex. Samples were spun in spin cartridges (Invitrogen) at 12,000 × g for 15 s at room temperature, and the flow-through was discarded. A total of 700 µL Wash Buffer I (Invitrogen) was added and spun at 12,000 × g for 15 s at room temperature, and the flow-through was discarded. A total of 500 µL Wash Buffer II (Invitrogen) with ethanol was added and centrifuged for 12,000 × g for 15 s at room temperature; the flow-through was discarded, and RNA samples were washed again. Cells were spun at 12,000 × g for 1 min at room temperature to dry the membrane with the bound RNA. A total of 50 µL RNAse-free water was added to the center of the spin cartridge, incubated at room temperature for 1 min, and centrifuged for 2 min at ≥12,000 × g at room temperature. Extracted RNA was then frozen at −80°C until further use.
Bulk RNA was sent to SeqCenter (Pittsburgh, PA) where it was processed for paired-end Illumina sequencing via rRNA depletion using Ribo-Zero Plus (Illumina). Fastq files generated by SeqCenter were processed using Rockhopper with default settings ([61][–][63]). Briefly, fastq files were aligned to the genome of Pseudomonas aeruginosa UCBPP-PA14. The reads were subsequently normalized using upper-quartile normalization, and transcript abundance was determined by reads per kilobase per million mapped reads. Differential gene expression analysis was conducted using a negative binomial distribution model, outputting a P-value for each transcript. The P-values were then corrected for false discovery using the Benjamini-Hochberg procedure, resulting in the q-values reported here (Table S2). SignalMap v2.0 (NimbleGen Systems) was used to visualize read counts for phzABCDEFG1/2, phzH, phzM, and phzS (Fig. 5). Aligned sequences generated in Rockhopper were converted to GFF files, and genes of interest were isolated into unique GFF files ([37]).

RhlR = tested on: RhlR; set-up: method as in PMID 28119451; conditions: cited from earlier work

For CCCC(=O)N[C@H]1CCOC1=O [C4HSL, N-butyryl-L-homoserine lactone], the “chiC Expression value” [1] was 3,525,171.5, the “fhp Expression value” [1] was 641,438 and the “hcnA Expression value” [1] was 44,841. The “katA Expression value” [1] was 14,093,439.5, the “katB Expression value” [1] was 3,028,118.5 and the “lasB Expression value” [1] was 19,914,902.5. The “lecB Expression value” [1] was 366,190, the “mexG Expression value” [1] was 516,840.5 and the “mexH Expression value” [1] was 903,148. The “mexI Expression value” [1] was 920,093.5, the “mvfR Expression value” [1] was 301,183 and the “norB Expression value” [1] was 6,989,112.5. For the same molecule, the “norC Expression value” [1] was 3,120,586.5, the “opmD Expression value” [1] was 631,843.5 and the “phnA Expression value” [1] was 1,160,599.5. The “phnB Expression value” [1] was 350,722, the “phzA1 Expression value” [1] was 15,501 and the “phzA2 Expression value” [1] was 238,645. For the same molecule, the “phzB1 Expression value” [1] was 218,602.5, the “phzB2 Expression value” [1] was 4,517,504 and the “phzC1 Expression value” [1] was 655,136.5. For the same molecule, the “phzC2 Expression value” [1] was 4,730,067, the “phzD1 Expression value” [1] was 2,329,509 and the “phzD2 Expression value” [1] was 2,063,245.5. The “phzE1 Expression value” [1] was 4,232,986.5, the “phzE2 Expression value” [1] was 3,213,651.5 and the “phzF1 Expression value” [1] was 1,981,300.5. For the same molecule, the “phzF2 Expression value” [1] was 1,982,482, the “phzG1 Expression value” [1] was 560,110.5 and the “phzG2 Expression value” [1] was 2,035,315. The “phzM Expression value” [1] was 184,602, the “phzS Expression value” [1] was 726,300.5 and the “pqsA Expression value” [1] was 1,089,687.5. For the same molecule, the “pqsB Expression value” [1] was 2,286,881.5, the “pqsC Expression value” [1] was 2,211,818.5 and the “pqsD Expression value” [1] was 2,409,895. For the same molecule, the “pqsE Expression value” [1] was 1,210,331, the “rhlA Expression value” [1] was 1,118,561.5 and the “rhlB Expression value” [1] was 1,056,112.5. The “rhlR Expression value” [1] was 1,082,023, the “chiC Log2fold change” value ([1]; vs ΔrhlI without AHL) was 4.67 and the “fhp Log2fold change” value ([1]; vs ΔrhlI without AHL) was 6.375. The “hcnA Log2fold change” value ([1]; vs ΔrhlI without AHL) was 0.4821, the “katA Log2fold change” value ([1]; vs ΔrhlI without AHL) was 2.183 and the “katB Log2fold change” value ([1]; vs ΔrhlI without AHL) was 7.942. For the same molecule, the “lasB Log2fold change” value ([1]; vs ΔrhlI without AHL) was 2.638, the “lecB Log2fold change” value ([1]; vs ΔrhlI without AHL) was 0.03694 and the “mexG Log2fold change” value ([1]; vs ΔrhlI without AHL) was 6.993. For the same molecule, the “mexH Log2fold change” value ([1]; vs ΔrhlI without AHL) was 6.553, the “mexI Log2fold change” value ([1]; vs ΔrhlI without AHL) was 5.716 and the “mvfR Log2fold change” value ([1]; vs ΔrhlI without AHL) was 0.3556. For the same molecule, the “norB Log2fold change” value ([1]; vs ΔrhlI without AHL) was 7.423, the “norC Log2fold change” value ([1]; vs ΔrhlI without AHL) was 7.283 and the “opmD Log2fold change” value ([1]; vs ΔrhlI without AHL) was 6.473. The “phnA Log2fold change” value ([1]; vs ΔrhlI without AHL) was −0.9963, the “phnB Log2fold change” value ([1]; vs ΔrhlI without AHL) was −0.7095 and the “phzA1 Log2fold change” value ([1]; vs ΔrhlI without AHL) was −0.9521. For the same molecule, the “phzA2 Log2fold change” value ([1]; vs ΔrhlI without AHL) was 4.504, the “phzB1 Log2fold change” value ([1]; vs ΔrhlI without AHL) was −0.627 and the “phzB2 Log2fold change” value ([1]; vs ΔrhlI without AHL) was 4.419. The “phzC1 Log2fold change” value ([1]; vs ΔrhlI without AHL) was 1.576, the “phzC2 Log2fold change” value ([1]; vs ΔrhlI without AHL) was 4.692 and the “phzD1 Log2fold change” value ([1]; vs ΔrhlI without AHL) was 3.417. For the same molecule, the “phzD2 Log2fold change” value ([1]; vs ΔrhlI without AHL) was 3.452, the “phzE1 Log2fold change” value ([1]; vs ΔrhlI without AHL) was 3.384 and the “phzE2 Log2fold change” value ([1]; vs ΔrhlI without AHL) was 3.413. The “phzF1 Log2fold change” value ([1]; vs ΔrhlI without AHL) was 3.113, the “phzF2 Log2fold change” value ([1]; vs ΔrhlI without AHL) was 3.107 and the “phzG1 Log2fold change” value ([1]; vs ΔrhlI without AHL) was 1.459. For the same molecule, the “phzG2 Log2fold change” value ([1]; vs ΔrhlI without AHL) was 4.193, the “phzM Log2fold change” value ([1]; vs ΔrhlI without AHL) was −0.9094 and the “phzS Log2fold change” value ([1]; vs ΔrhlI without AHL) was −0.04329. For the same molecule, the “pqsA Log2fold change” value ([1]; vs ΔrhlI without AHL) was −1.279, the “pqsB Log2fold change” value ([1]; vs ΔrhlI without AHL) was −0.7204 and the “pqsC Log2fold change” value ([1]; vs ΔrhlI without AHL) was −0.7931. For the same molecule, the “pqsD Log2fold change” value ([1]; vs ΔrhlI without AHL) was −0.874, the “pqsE Log2fold change” value ([1]; vs ΔrhlI without AHL) was −1.056 and the “rhlA Log2fold change” value ([1]; vs ΔrhlI without AHL) was 2.147. For the same molecule, the “rhlB Log2fold change” value ([1]; vs ΔrhlI without AHL) was 2.998, the “rhlR Log2fold change” value ([1]; vs ΔrhlI without AHL) was 0.762 and the EC50 (RhlR) was about 5 µM.
